In the CheMixHub viscosity set:

Assay: xn = mol fraction of the nth substance listed

CCCCCCCC/C=C\CCCCCCCC(=O)OCC + CCCO
Conditions	viscosity [mPa·s]
303.15 K, 101 kPa, x2 = 0.2	4.435

CC(=O)OCCC(C)C + Clc1ccccc1
viscosity [mPa·s], 101 kPa
Conditions	298.15 K	303.15 K	308.15 K	313.15 K
x1 = 0.0458	0.75	–	0.678	–
x1 = 0.0705	–	0.718	–	0.634
x1 = 0.1467	–	0.729	–	0.643
x1 = 0.1506	0.741	–	0.676	–
x1 = 0.2271	–	0.74	–	0.654
x1 = 0.251	0.735	–	0.677	–
x1 = 0.3141	–	0.751	–	0.662
x1 = 0.3515	0.732	–	0.681	–
x1 = 0.4073	–	0.758	–	0.669
x1 = 0.4513	0.731	–	0.684	–
x1 = 0.4998	0.732	–	0.687	–
x1 = 0.5006	–	0.767	–	0.675
x1 = 0.5511	0.734	–	0.691	–
x1 = 0.6085	–	0.768	–	0.674
x1 = 0.6517	0.739	–	0.699	–
x1 = 0.728	–	0.766	–	0.671
x1 = 0.7519	0.747	–	0.71	–
x1 = 0.8507	0.758	–	0.723	–
x1 = 0.8573	–	0.758	–	0.661
x1 = 0.9448	0.772	–	0.737	–

CC(=O)Nc1ccccc1 + CC(=O)O
viscosity [mPa·s], 101.3 kPa
Conditions	x1 = 0.1	x1 = 0.204	x1 = 0.288
298.15 K	19	30.2	43.6
323.15 K	11.8	18.2	27.7

CC(=O)OCCC(C)C + Cc1ccc(C)cc1
viscosity [mPa·s], 101 kPa
Conditions	298.15 K	308.15 K
x1 = 0.0453	0.615	0.54
x1 = 0.1495	0.617	0.55
x1 = 0.2436	0.622	0.561
x1 = 0.3501	0.632	0.576
x1 = 0.4497	0.644	0.594
x1 = 0.4974	0.651	0.603
x1 = 0.5484	0.659	0.613
x1 = 0.6458	0.678	0.636
x1 = 0.7503	0.702	0.663
x1 = 0.8492	0.73	0.693
x1 = 0.9411	0.76	0.725

CC(=O)OCCC(C)C + CCCCCC
viscosity [mPa·s], 101 kPa
Conditions	298.15 K	308.15 K
x1 = 0.0521	0.303	0.286
x1 = 0.149	0.328	0.313
x1 = 0.2509	0.358	0.345
x1 = 0.3492	0.391	0.38
x1 = 0.4851	0.445	0.435
x1 = 0.5317	0.466	0.456
x1 = 0.5507	0.475	0.464
x1 = 0.6504	0.526	0.514
x1 = 0.7492	0.585	0.57
x1 = 0.8506	0.655	0.635
x1 = 0.9546	0.74	0.711

CC(=O)OCCC(C)C + C1CCCCC1
viscosity [mPa·s], 101 kPa
Conditions	298.15 K	308.15 K
x1 = 0.0292	0.862	0.73
x1 = 0.0895	0.813	0.686
x1 = 0.1448	0.776	0.653
x1 = 0.2104	0.74	0.621
x1 = 0.3069	0.7	0.587
x1 = 0.3512	0.687	0.577
x1 = 0.3964	0.676	0.569
x1 = 0.4958	0.661	0.561
x1 = 0.6222	0.661	0.57
x1 = 0.753	0.682	0.603
x1 = 0.9257	0.747	0.69

CCCCCCCC/C=C\CCCCCCCC(=O)OCC + CCCCO
viscosity [mPa·s], 100 kPa
Conditions	x1 = 0.1	x1 = 0.2	x1 = 0.3	x1 = 0.4	x1 = 0.5	x1 = 0.6	x1 = 0.7	x1 = 0.8	x1 = 0.9
293.15 K	3.187	3.558	3.946	4.315	4.68	5.024	5.358	5.682	6.011
298.15 K	2.818	3.143	3.481	3.808	4.131	4.437	4.732	5.013	5.31
303.15 K	2.491	2.782	3.08	3.371	3.649	3.918	4.175	4.419	4.678
308.15 K	2.217	2.48	2.746	3.002	3.25	3.486	3.713	3.931	4.16
313.15 K	1.983	2.223	2.46	2.683	2.897	3.103	3.3	3.49	3.691
318.15 K	1.776	1.998	2.214	2.421	2.62	2.81	2.991	3.165	3.35
323.15 K	1.6	1.806	2.002	2.192	2.371	2.543	2.707	2.865	3.032

CCCC(=O)[O-].[NH3+]CCO + O
viscosity [mPa·s], 101 kPa
Conditions	x1 = 0.0063	x1 = 0.0132	x2 = 0.8927	x2 = 0.9254	x2 = 0.9508	x2 = 0.9707	x2 = 0.9793
293.15 K	1.38	1.662	9.498	5.73	3.702	2.46	1.98
298.15 K	1.248	1.476	7.89	4.836	3.21	2.145	1.776
303.15 K	1.104	1.32	6.6	4.182	2.814	1.878	1.59

CC(=O)Nc1ccccc1 + CO
viscosity [mPa·s], 101 kPa
Conditions	298.15 K	303.15 K	308.15 K	313.15 K
x1 = 0.08868	0.9964	0.918	0.8461	0.7805
x1 = 0.1132	1.158	1.057	0.9716	0.886
